In patent US8841483B2, “Compositions useful as inhibitors of voltage-gated sodium channels” (Vertex Pharmaceuticals Incorporated, priority 2006, dated 2014):

target: NaV1.8 (Homo sapiens, UniProt Q9Y5Y9); assay: Activity against NaV 1.8 channel (Table 3), optical membrane potential / electrophysiology assays; assay type: cell-based
Method: Compounds of the invention are useful as antagonists of voltage-gated sodium ion channels. Antagonist properties of test compounds were assessed as follows. Cells expressing the NaV of interest were placed into microtiter plates. After an incubation period, the cells were stained with fluorescent dyes sensitive to the transmembrane potential. The test compounds were added to the microtiter plate. The cells were stimulated with either a chemical or electrical means ti evoke a NaV dependent membrane potential change from unblocked channels, which was detected and measured with trans-membrane potential-sensitive dyes. Antagonists were detected as a decreased membrane potential response to the stimulus. The optical membrane potential assay utilized voltage-sensitive FRET sensors described by Gonzalez and Tsien (See, Gonzalez, J. E. and R. Y. Tsien (1995) “Voltage sensing by fluorescence resonance energy transfer in single cells” Biophys J 69(4): 1272-80, and Gonzalez, J. E. and R. Y. Tsien (1997) “Improved indicators of cell membrane potential that use fluorescence resonance energy transfer” Chem Biol 4(4): 269-77) in combination with instrumentation for measuring fluorescence changes such as the Voltage/Ion Probe Reader (VIPR®) (See, Gonzalez, J. E., K. Oades, et al. (1999) “Cell-based assays and instrumentation for screening ion-channel targets” Drug Discov Today 4(9): 431-439).
The following is an example of how NaV1.3 inhibition activity is measured using the optical membrane potential method #2. Other subtypes are performed in an analogous mode in a cell line expressing the NaV of interest.
HEK293 cells stably expressing NaV1.3 are plated into 96-well microtiter plates. After an appropriate incubation period, the cells are stained with the voltage sensitive dyes CC2-DMPE/DiSBAC2(3) as follows.
2X CC2-DMPE=20 μM CC2-DMPE: 10 mM CC2-DMPE is vortexed with an equivalent volume of 10% pluronic, followed by vortexing in required amount of HBSS containing 10 mM HEPES. Each cell plate will require 5 mL of 2X CC2-DMPE. 50 μL of 2X CC2-DMPE is to wells containing washed cells, resulting in a 10 μM final staining concentration. The cells are stained for 30 minutes in the dark at RT.
2X DISBAC2(3) with ABSC1=6 μM DISBAC2(3) and 1 mM ABSC1: The required amount of 10 mM DISBAC2(3) is added to a 50 ml conical tube and mixed with 1 μL 10% pluronic for each mL of solution to be made and vortexed together. Then HBSS/HEPES is added to make up 2X solution. Finally, the ABSC1 is added.
The 2X DiSBAC2(3) solution can be used to solvate compound plates. Note that compound plates are made at 2X drug concentration. Wash stained plate again, leaving residual volume of 50 μL. Add 50 uL/well of the 2X DiSBAC2(3) w/ABSC1. Stain for 30 minutes in the dark at RT.
The electrical stimulation instrument and methods of use are described in ION Channel Assay Methods PCT/US01/21652, herein incorporated by reference. The instrument comprises a microtiter plate handler, an optical system for exciting the coumarin dye while simultaneously recording the coumarin and oxonol emissions, a waveform generator, a current- or voltage-controlled amplifier, and a device for inserting electrodes in well. Under integrated computer control, this instrument passes user-programmed electrical stimulus protocols to cells within the wells of the microtiter plate.
Assay Protocol • 1. Insert or use electrodes into each well to be assayed. • 2. Use the current-controlled amplifier to deliver stimulation wave pulses for 3 s. Two seconds of pre-stimulus recording are performed to obtain the un-stimulated intensities. Five seconds of post-stimulation recording are performed to examine the relaxation to the resting state.
Data are analyzed and reported as normalized ratios of background-subtracted emission intensities measured in the 460 nm and 580 nm channels. Background intensities are then subtracted from each assay channel. […]

| Compound | IC50 [µM] |
| --- | --- |
| CCCc1ccc(C(=O)Nc2cccc(S(N)(=O)=O)c2)cc1 [Compound 66] | > 10 |
| CC(=O)c1ccccc1Oc1cc(C(C)(C)C)ccc1C(=O)Nc1cccc(S(N)(=O)=O)c1 [Compound 102] | 2 to 10 |
| Cc1ccc(Oc2cc(C(C)(C)C)ccc2C(=O)Nc2cccc(S(N)(=O)=O)c2)cn1 [Compound 144] | < 2 |
| NS(=O)(=O)c1cccc(NC(=O)c2cccc(C(F)(F)F)c2)c1 [Compound 35] | > 10 |
| CC(C)(C)c1ccc(C(=O)Nc2cccc(S(N)(=O)=O)c2)c(Oc2ccc(F)cc2)c1 [Compound 78, 2-(4-Fluorophenoxy)-4-tert-butyl-N-(3-(aminosulfonyl)phenyl)benzamide] | < 2 |
| CS(=O)(=O)c1ccc(C(=O)Nc2cccc(S(N)(=O)=O)c2)c(Cl)c1 [Compound 127] | > 10 |
| Cc1ccccc1Oc1ccccc1C(=O)Nc1cccc(S(N)(=O)=O)c1 [Compound 91] | < 2 |
| Cc1ccc(C(=O)Nc2cccc(S(N)(=O)=O)c2)c(Br)c1 [Compound 142] | > 10 |
| Cc1ccc(-c2ccccc2C(=O)Nc2cccc(S(N)(=O)=O)c2)cc1 [Compound 75] | 2 to 10 |
| CC(C)(C)c1ccc(C(=O)Nc2cccc(S(N)(=O)=O)c2)c(Oc2ccc(F)cc2F)c1 [Compound 107] | < 2 |
| Cc1ncccc1Oc1cc(C(C)(C)C)ccc1C(=O)Nc1cccc(S(N)(=O)=O)c1 [Compound 114] | < 2 |
| CC(=O)c1cccc(Oc2cc(C(C)(C)C)ccc2C(=O)Nc2cccc(S(N)(=O)=O)c2)c1 [Compound 135] | < 2 |
| CC(C)(C)c1ccc(C(=O)Nc2cccc(S(N)(=O)=O)c2)c(Oc2ccccc2C#N)c1 [Compound 111] | 2 to 10 |
| NS(=O)(=O)c1cccc(NC(=O)c2ccccc2NC(=O)c2cccnc2)c1 [Compound 20] | > 10 |
| Cc1ccc(Oc2cc(C(C)(C)C)ccc2C(=O)Nc2cccc(S(N)(=O)=O)c2)c(C)n1 [Compound 99] | < 2 |
| CCCOc1ccccc1C(=O)Nc1cccc(S(N)(=O)=O)c1 [Compound 131] | > 10 |
| NS(=O)(=O)c1cccc(NC(=O)c2ccccc2C(F)(F)F)c1 [Compound 47] | > 10 |
| COc1ccc(C(=O)Nc2cccc(S(N)(=O)=O)c2)c(C)c1 [Compound 141] | > 10 |
| NS(=O)(=O)c1cccc(NC(=O)c2ccc(Cl)cc2Br)c1 [Compound 70] | > 10 |
| CCc1cc(C(=O)Nc2cccc(S(N)(=O)=O)c2)ccc1-c1ccccc1 [Compound 65] | > 10 |

| Compound | IC50 [µM] |
| --- | --- |
| CC(C)(C)c1ccc(C(=O)Nc2cccc(S(N)(=O)=O)c2)c(Oc2ccc(C(F)(F)F)cc2Cl)c1 [Compound 116] | 2 to 10 |
| NS(=O)(=O)c1cccc(NC(=O)c2ccc(-c3ncc[nH]3)cc2)c1 [Compound 19] | > 10 |
| COc1ccc(C(=O)Nc2cccc(S(N)(=O)=O)c2)cc1OC [Compound 9] | > 10 |
| Cc1cccc(Oc2cc(C(C)(C)C)ccc2C(=O)Nc2cccc(S(N)(=O)=O)c2)c1 [Compound 119] | < 2 |
| NS(=O)(=O)c1cccc(NC(=O)c2ccccc2NCc2ccccc2)c1 [Compound 68] | > 10 |
| CC(C)(C)c1ccc(C(=O)Nc2cccc(S(N)(=O)=O)c2)c(Oc2ccccc2)c1 [Compound 1] | < 2 |
| Cc1cc(C)c(S(N)(=O)=O)cc1NC(=O)c1ccc(C(C)(C)C)cc1 [Compound 25] | > 10 |
| COC(=O)c1ccc(C(=O)Nc2cccc(S(N)(=O)=O)c2)cc1 [Compound 37] | > 10 |
| COc1ccccc1Oc1ccccc1C(=O)Nc1cccc(S(N)(=O)=O)c1 [Compound 23] | < 2 |
| CC(C)(C)c1ccc(C(=O)Nc2cc(S(N)(=O)=O)ccc2Cl)cc1 [Compound 87] | > 10 |
| CN(C)c1ccc(C(=O)Nc2cccc(S(N)(=O)=O)c2)cc1 [Compound 33] | > 10 |
| COC(=O)c1ccc(Oc2cc(C(C)(C)C)ccc2C(=O)Nc2cccc(S(N)(=O)=O)c2)cc1 [Compound 125] | < 2 |
| NS(=O)(=O)c1cccc(NC(=O)c2ccccc2Nc2cccc(Oc3ccccc3)c2)c1 [Compound 17] | > 10 |
| CC(=O)c1ccccc1C(=O)Nc1cccc(S(N)(=O)=O)c1 [Compound 122] | > 10 |
| Cc1ncccc1Oc1cc(C(F)(F)F)ccc1C(=O)Nc1cccc(S(N)(=O)=O)c1 [Compound 138, 2-(2-methylpyridin-3-yloxy)-N-(3-sulfamoylphenyl)-4-(trifluoromethyl)benzamide] | < 2 |
| NS(=O)(=O)c1cccc(NC(=O)c2ccccc2Oc2ccccc2N2CCCCC2)c1 [Compound 53, 2-(2-(Piperidin-1-yl)phenoxy)-N-(3-(aminosulfonyl)phenyl)benzamide] | < 2 |
| CC(C)(C)NS(=O)(=O)c1cccc(NC(=O)c2ccc(C(C)(C)C)cc2Br)c1 [Compound 126] | 2 to 10 |
| COc1cc(Cl)ccc1C(=O)Nc1cccc(S(N)(=O)=O)c1 [Compound 140] | > 10 |
| CN(C)S(=O)(=O)c1cccc(NC(=O)c2ccc(C(C)(C)C)cc2Oc2ccc(F)cc2Cl)c1 [Compound 121] | < 2 |
| CCOc1cc(C(C)(C)C)ccc1C(=O)Nc1cccc(S(N)(=O)=O)c1 [Compound 103] | < 2 |

| Compound | IC50 [µM] |
| --- | --- |
| CN(C(=O)c1ccc(C(C)(C)C)cc1)c1cccc(S(N)(=O)=O)c1 [Compound 90, 4-tert-Butyl-N-methyl-N-(3-(aminosulfonyl)phenyl)benzamide] | > 10 |
| CC(C)(C)c1ccc(C(=O)Nc2cccc(S(N)(=O)=O)c2)c(Oc2ccc(F)cc2Cl)c1 [Compound 101] | < 2 |
| NS(=O)(=O)c1cccc(NC(=O)c2cccc(N3CCNC3=O)c2)c1 [Compound 86] | > 10 |
| CC(C)(C)c1ccc(C(=O)Nc2cccc(S(N)(=O)=O)c2)c(Oc2ccc(C#N)cc2Cl)c1 [Compound 143] | < 2 |
| NS(=O)(=O)c1cccc(NC(=O)c2ccccc2Oc2cccc(N3CCOCC3)c2)c1 [Compound 89] | > 10 |
| NS(=O)(=O)c1cccc(NC(=O)c2cccc(Oc3ccccc3)c2)c1 [Compound 15] | 2 to 10 |
| CC(C)(C)c1ccc(C(=O)Nc2cccc(S(N)(=O)=O)c2)c(Oc2ccc(C(F)(F)F)nc2)c1 [Compound 115] | < 2 |
| Cc1ccc(C(=O)Nc2cccc(S(N)(=O)=O)c2)cc1 [Compound 38] | > 10 |
| NS(=O)(=O)c1cccc(NC(=O)c2ccccc2-c2cccnc2)c1 [Compound 11] | > 10 |
| CNS(=O)(=O)c1cccc(NC(=O)c2ccc(C(C)(C)C)cc2)c1 [Compound 14] | 2 to 10 |
| NS(=O)(=O)c1cccc(NC(=O)c2ccccc2COc2ccccc2)c1 [Compound 12] | 2 to 10 |
| NS(=O)(=O)c1cccc(NC(=O)c2ccccc2Nc2cccc(-c3nnn[nH]3)c2)c1 [Compound 82] | > 10 |
| NS(=O)(=O)c1cccc(NC(=O)c2ccc(-c3ccccc3)cc2)c1 [Compound 58] | > 10 |
| NS(=O)(=O)c1cccc(NC(=O)c2ccc(C(F)(F)F)cc2O)c1 [Compound 100] | > 10 |
| COc1cccc(Oc2ccccc2C(=O)Nc2cccc(S(N)(=O)=O)c2)c1 [Compound 84] | 2 to 10 |
| CC(C)(C)c1cccc(Nc2ccccc2C(=O)Nc2cccc(S(N)(=O)=O)c2)c1 [Compound 26] | > 10 |
| COc1cc(C)c(S(N)(=O)=O)cc1NC(=O)c1ccc(C(C)(C)C)cc1 [Compound 43] | > 10 |
| N#Cc1ccc(C(=O)Nc2cccc(S(N)(=O)=O)c2)cc1 [Compound 52] | > 10 |
| CC(C)(C)c1ccc(C(=O)Nc2cccc(S(N)(=O)=O)c2)c(S(=O)(=O)c2ccccc2)c1 [Compound 112, 4-tert-Butyl-2-(phenylsulfonyl)-N-(3-sulfamoylphenyl)benzamide] | 2 to 10 |
| CN(C)c1ccccc1C(=O)Nc1cccc(S(N)(=O)=O)c1 [Compound 44] | > 10 |
